Entries after “also recorded” stand apart in the source; their conditions may differ.
Legend:
Type in all cases: cell-based
[1] = system: live SARS-CoV-2 virus
[2] = system: pseudotyped SARS-CoV-2 virus
[3] = system: GFP-expressing SARS-CoV-1 (Urbani) pseudovirus

Row | Substance | differential antiviral activity [1] | antiviral activity [1] | antiviral activity, i, i+7 staple scan [1] | antiviral activity [2] | antiviral activity [3]
1 | DISGINASVVNIQK8IDRLNEXAKNLNESLIDLQELGK [SEQ ID NO: 11] | little to no activity |  |  |  | 
2 | DISGINASVVNIQKEI8RLNEVAXNLNESLIDLQELGK [SEQ ID NO: 13] | moderate activity | consistent antiviral activity | potent anti-viral activity; also recorded: among the most potent antiviral activity; also recorded: uniquely potent | consistent antiviral activity | consistent antiviral activity
3 | DISGINASVVNIQKEID8LNEVAKXLNESLIDLQELGK [SEQ ID NO: 14] | little to no activity |  |  |  | 
4 | DISGINASVVNIQKEIDR8NEVAKNXNESLIDLQELGK [SEQ ID NO: 15] | little to no activity |  |  |  | 
5 | DISGINASVVNIQKEIDRL8EVAKNLXESLIDLQELGK [SEQ ID NO: 16] | moderate activity |  |  |  | 
